Measurements published in the OligoGym collection.
“And” between values parts separate entries of the source, which are not always exact repeats. Identical values can stand only once. HELM strings list units from the 5' end as sugar, base in round brackets, then linkage (d deoxyribose, r ribose, m 2'-O-methyl, p phosphodiester). Methylation of C is not given here. [moe] = 2'-O-(2-methoxyethyl) (MOE); [cEt] = constrained ethyl (cEt); [sp] = phosphorothioate linkage

Biological target: HBV
Conditions: ASO

Substance: RNA1{[moe](G)[sp].[moe](T)[sp].d(G)[sp].d(A)[sp].d(A)[sp].d(G)[sp].d(C)[sp].d(G)[sp].d(A)[sp].d(A)[sp].d(G)[sp].[moe](T)[sp].[moe](G)[sp].[moe](C)[sp].[moe](A)[sp].[moe](C)[sp].[moe](A)}$$$$V2.0
- target mRNA inhibition (HepG2, 0.07 µM): 73% and 68%

Substance: RNA1{[moe](A)[sp].[moe](A)[sp].[moe](T)[sp].d(T)[sp].d(T)[sp].d(A)[sp].d(T)[sp].d(G)[sp].d(C)[sp].d(C)[sp].d(T)[sp].d(A)[sp].[moe](C)[sp].[moe](A)[sp].[moe](G)[sp].[moe](C)[sp].[moe](C)}$$$$V2.0
- target mRNA inhibition (HepG2, 0.07 µM): 56% and 39%

Substance: RNA1{[moe](A)[sp].[moe](T)[sp].[moe](T)[sp].[cEt](T)[sp].d(A)[sp].d(T)[sp].d(G)[sp].d(C)[sp].d(C)[sp].d(T)[sp].d(A)[sp].d(C)[sp].d(A)[sp].[cEt](G)[sp].[moe](C)[sp].[moe](C)[sp].[moe](T)}$$$$V2.0
- target mRNA inhibition (HepG2, 0.009375 µM): 32%
- target mRNA inhibition (HepG2, 0.01875 µM): 32%
- target mRNA inhibition (HepG2, 0.0375 µM): 42%
- target mRNA inhibition (HepG2, 0.075 µM): 62%
- target mRNA inhibition (HepG2, 0.15 µM): 76%
- target mRNA inhibition (HepG2, 0.3 µM): 80%

Substance: RNA1{[moe](G)[sp].[moe](A)[sp].[moe](T)[sp].[moe](G)[sp].[moe](A)[sp].d(G)[sp].d(G)[sp].d(C)[sp].d(A)[sp].d(T)[sp].d(A)[sp].d(G)[sp].d(C)[sp].d(A)[sp].[moe](G)[sp].[moe](C)[sp].[moe](A)}$$$$V2.0
- target mRNA inhibition (HepG2, 0.07 µM): 46% and 21%

Substance: RNA1{[moe](A)[sp].[cEt](G)[sp].[cEt](A)[sp].d(G)[sp].d(G)[sp].d(T)[sp].d(G)[sp].d(A)[sp].d(A)[sp].d(G)[sp].d(C)[sp].d(G)[sp].d(A)[sp].[cEt](A)[sp].[cEt](G)[sp].[moe](T)}$$$$V2.0
- target mRNA inhibition (HepG2, 0.07 µM): 68% and 74%

Substance: RNA1{[moe](A)[sp].[moe](A)[sp].d(T)[sp].d(T)[sp].d(T)[sp].d(A)[sp].d(T)[sp].d(G)[sp].d(C)[sp].d(C)[sp].d(T)[sp].[moe](A)[sp].[moe](C)[sp].[moe](A)[sp].[moe](G)[sp].[moe](C)[sp].[moe](C)}$$$$V2.0
- target mRNA inhibition (HepG2, 0.07 µM): 52% and 48%

Substance: RNA1{[moe](T)[sp].[cEt](T)[sp].[cEt](C)[sp].d(C)[sp].d(G)[sp].d(C)[sp].d(A)[sp].d(G)[sp].d(T)[sp].d(A)[sp].d(T)[sp].d(G)[sp].d(G)[sp].[cEt](A)[sp].[cEt](T)[sp].[moe](C)}$$$$V2.0
- target mRNA inhibition (HepG2, 0.07 µM): 47% and 61%

Substance: RNA1{[moe](G)[sp].[moe](A)[sp].[moe](G)[sp].[moe](G)[sp].[moe](T)[sp].d(G)[sp].d(A)[sp].d(A)[sp].d(G)[sp].d(C)[sp].d(G)[sp].d(A)[sp].d(A)[sp].d(G)[sp].[moe](T)[sp].[moe](G)}$$$$V2.0
- target mRNA inhibition (HepG2, 0.07 µM): 46% and 39%

Substance: RNA1{[moe](A)[sp].[moe](A)[sp].[moe](T)[sp].[moe](T)[sp].d(T)[sp].d(A)[sp].d(T)[sp].d(G)[sp].d(C)[sp].d(C)[sp].d(T)[sp].d(A)[sp].d(C)[sp].[moe](A)[sp].[moe](G)[sp].[moe](C)[sp].[moe](C)}$$$$V2.0
- target mRNA inhibition (HepG2, 0.07 µM): 40% and 36%

Substance: RNA1{[moe](C)[sp].[moe](G)[sp].[moe](T)[sp].[moe](G)[sp].d(C)[sp].d(A)[sp].d(G)[sp].d(A)[sp].d(G)[sp].d(G)[sp].d(T)[sp].d(G)[sp].d(A)[sp].[moe](A)[sp].[moe](G)[sp].[moe](C)[sp].[moe](G)}$$$$V2.0
- target mRNA inhibition (HepG2, 0.07 µM): 58% and 43%

Substance: RNA1{[moe](T)[sp].[moe](T)[sp].[moe](C)[sp].[moe](C)[sp].[moe](G)[sp].d(C)[sp].d(A)[sp].d(G)[sp].d(T)[sp].d(A)[sp].d(T)[sp].d(G)[sp].d(G)[sp].d(A)[sp].[moe](T)[sp].[moe](C)}$$$$V2.0
- target mRNA inhibition (HepG2, 0.07 µM): 59% and 58%

Substance: RNA1{[moe](T)[sp].[moe](T)[sp].[moe](T)[sp].d(A)[sp].d(T)[sp].d(G)[sp].d(C)[sp].d(C)[sp].d(T)[sp].d(A)[sp].d(C)[sp].d(A)[sp].[moe](G)[sp].[moe](C)[sp].[moe](C)[sp].[moe](T)}$$$$V2.0
- target mRNA inhibition (HepG2, 0.07 µM): 51% and 38%

Substance: RNA1{[moe](A)[sp].[moe](C)[sp].[moe](C)[sp].[moe](A)[sp].[moe](C)[sp].d(T)[sp].d(G)[sp].d(A)[sp].d(A)[sp].d(C)[sp].d(A)[sp].d(A)[sp].d(A)[sp].d(T)[sp].[moe](G)[sp].[moe](G)}$$$$V2.0
- target mRNA inhibition (HepG2, 0.07 µM): 60% and 52%

Substance: RNA1{[moe](T)[sp].[moe](A)[sp].[moe](T)[sp].[moe](G)[sp].d(C)[sp].d(C)[sp].d(T)[sp].d(A)[sp].d(C)[sp].d(A)[sp].d(G)[sp].d(C)[sp].d(C)[sp].[moe](T)[sp].[moe](C)[sp].[moe](C)}$$$$V2.0
- target mRNA inhibition (HepG2, 0.07 µM): 33% and 42%

Substance: RNA1{[moe](G)[sp].[cEt](A)[sp].[cEt](G)[sp].d(G)[sp].d(C)[sp].d(A)[sp].d(T)[sp].d(A)[sp].d(G)[sp].d(C)[sp].d(A)[sp].d(G)[sp].d(C)[sp].[cEt](A)[sp].[cEt](G)[sp].[moe](G)}$$$$V2.0
- target mRNA inhibition (HepG2, 0.07 µM): 64% and 67%

Substance: RNA1{[moe](A)[sp].[cEt](G)[sp].[cEt](G)[sp].d(A)[sp].d(G)[sp].d(T)[sp].d(T)[sp].d(C)[sp].d(C)[sp].d(G)[sp].d(C)[sp].d(A)[sp].d(G)[sp].[cEt](T)[sp].[cEt](A)[sp].[moe](T)}$$$$V2.0
- target mRNA inhibition (HepG2, 0.0092593 µM): 4%
- target mRNA inhibition (HepG2, 0.0277778 µM): 35%
- target mRNA inhibition (HepG2, 0.07 µM): 89% and 79%
- target mRNA inhibition (HepG2, 0.0833333 µM): 70%
- target mRNA inhibition (HepG2, 0.25 µM): 87%

Substance: RNA1{[moe](G)[sp].[moe](A)[sp].[moe](G)[sp].d(G)[sp].d(C)[sp].d(A)[sp].d(T)[sp].d(A)[sp].d(G)[sp].d(C)[sp].d(A)[sp].d(G)[sp].[moe](C)[sp].[moe](A)[sp].[moe](G)[sp].[moe](G)}$$$$V2.0
- target mRNA inhibition (HepG2, 0.07 µM): 58% and 57%

Substance: RNA1{[moe](A)[sp].[moe](G)[sp].d(G)[sp].d(A)[sp].d(G)[sp].d(T)[sp].d(T)[sp].d(C)[sp].d(C)[sp].d(G)[sp].d(C)[sp].[moe](A)[sp].[moe](G)[sp].[moe](T)[sp].[moe](A)[sp].[moe](T)[sp].[moe](G)}$$$$V2.0
- target mRNA inhibition (HepG2, 0.07 µM): 81% and 63%

Substance: RNA1{[moe](C)[sp].[moe](C)[sp].[moe](A)[sp].[moe](A)[sp].d(T)[sp].d(T)[sp].d(T)[sp].d(A)[sp].d(T)[sp].d(G)[sp].d(C)[sp].d(C)[sp].d(T)[sp].[moe](A)[sp].[moe](C)[sp].[moe](A)[sp].[moe](G)}$$$$V2.0
- target mRNA inhibition (HepG2, 0.07 µM): 34% and 11%

Substance: RNA1{[moe](G)[sp].[moe](T)[sp].d(G)[sp].d(C)[sp].d(A)[sp].d(G)[sp].d(A)[sp].d(G)[sp].d(G)[sp].d(T)[sp].d(G)[sp].[moe](A)[sp].[moe](A)[sp].[moe](G)[sp].[moe](C)[sp].[moe](G)}$$$$V2.0
- target mRNA inhibition (HepG2, 0.07 µM): 53% and 42%

Substance: RNA1{[moe](A)[sp].[moe](A)[sp].[moe](G)[sp].[cEt](C)[sp].d(G)[sp].d(A)[sp].d(A)[sp].d(G)[sp].d(T)[sp].d(G)[sp].d(C)[sp].d(A)[sp].d(C)[sp].[cEt](A)[sp].[moe](C)[sp].[moe](G)[sp].[moe](G)}$$$$V2.0
- target mRNA inhibition (HepG2, 0.009375 µM): 28%
- target mRNA inhibition (HepG2, 0.01875 µM): 27%
- target mRNA inhibition (HepG2, 0.0375 µM): 42%
- target mRNA inhibition (HepG2, 0.075 µM): 59%
- target mRNA inhibition (HepG2, 0.15 µM): 81%
- target mRNA inhibition (HepG2, 0.3 µM): 88%

Substance: RNA1{[moe](A)[sp].[moe](A)[sp].d(G)[sp].d(A)[sp].d(T)[sp].d(G)[sp].d(A)[sp].d(G)[sp].d(G)[sp].d(C)[sp].d(A)[sp].[moe](T)[sp].[moe](A)[sp].[moe](G)[sp].[moe](C)[sp].[moe](A)[sp].[moe](G)}$$$$V2.0
- target mRNA inhibition (HepG2, 0.07 µM): 72% and 68%

Substance: RNA1{[moe](G)[sp].[moe](A)[sp].[moe](A)[sp].[moe](C)[sp].[moe](T)[sp].d(G)[sp].d(G)[sp].d(A)[sp].d(G)[sp].d(C)[sp].d(C)[sp].d(A)[sp].d(C)[sp].d(C)[sp].[moe](A)[sp].[moe](G)[sp].[moe](C)}$$$$V2.0
- target mRNA inhibition (HepG2, 0.07 µM): 41% and 50%

Substance: RNA1{[moe](A)[sp].[moe](C)[sp].[moe](T)[sp].[moe](A)[sp].d(G)[sp].d(T)[sp].d(A)[sp].d(A)[sp].d(A)[sp].d(C)[sp].d(T)[sp].d(G)[sp].d(A)[sp].[moe](G)[sp].[moe](C)[sp].[moe](C)}$$$$V2.0
- target mRNA inhibition (HepG2, 0.07 µM): 62% and 63%

Substance: RNA1{[moe](A)[sp].[moe](G)[sp].[moe](A)[sp].[moe](T)[sp].d(G)[sp].d(A)[sp].d(G)[sp].d(G)[sp].d(C)[sp].d(A)[sp].d(T)[sp].d(A)[sp].d(G)[sp].[moe](C)[sp].[moe](A)[sp].[moe](G)[sp].[moe](C)}$$$$V2.0
- target mRNA inhibition (HepG2, 0.07 µM): 45% and 40%

Substance: RNA1{[moe](A)[sp].[moe](A)[sp].[moe](G)[sp].[moe](C)[sp].[moe](G)[sp].[moe](A)[sp].d(A)[sp].d(G)[sp].d(T)[sp].d(G)[sp].d(C)[sp].d(A)[sp].d(C)[sp].d(A)[sp].d(C)[sp].[moe](G)[sp].[moe](G)}$$$$V2.0
- target mRNA inhibition (HepG2, 0.0092593 µM): 20%
- target mRNA inhibition (HepG2, 0.0277778 µM): 36%
- target mRNA inhibition (HepG2, 0.07 µM): 92% and 73%
- target mRNA inhibition (HepG2, 0.0833333 µM): 54%
- target mRNA inhibition (HepG2, 0.25 µM): 76%

Substance: RNA1{[moe](C)[sp].[moe](G)[sp].[moe](T)[sp].d(G)[sp].d(C)[sp].d(A)[sp].d(G)[sp].d(A)[sp].d(G)[sp].d(G)[sp].d(T)[sp].d(G)[sp].[moe](A)[sp].[moe](A)[sp].[moe](G)[sp].[moe](C)}$$$$V2.0
- target mRNA inhibition (HepG2, 0.07 µM): 62% and 42%

Substance: RNA1{[moe](G)[sp].[cEt](A)[sp].[cEt](A)[sp].d(C)[sp].d(C)[sp].d(A)[sp].d(C)[sp].d(T)[sp].d(G)[sp].d(A)[sp].d(A)[sp].d(C)[sp].d(A)[sp].[cEt](A)[sp].[cEt](A)[sp].[moe](T)}$$$$V2.0
- target mRNA inhibition (HepG2, 0.07 µM): 65% and 53%

Substance: RNA1{[moe](A)[sp].[cEt](C)[sp].d(C)[sp].d(A)[sp].d(A)[sp].d(T)[sp].d(T)[sp].d(T)[sp].d(A)[sp].d(T)[sp].d(G)[sp].d(C)[sp].[cEt](C)[sp].[moe](T)[sp].[cEt](A)[sp].[moe](C)}$$$$V2.0
- target mRNA inhibition (HepG2, 0.07 µM): 40% and 51%

Substance: RNA1{[moe](A)[sp].[moe](C)[sp].[moe](C)[sp].[moe](A)[sp].[moe](A)[sp].d(T)[sp].d(T)[sp].d(T)[sp].d(A)[sp].d(T)[sp].d(G)[sp].d(C)[sp].d(C)[sp].d(T)[sp].[moe](A)[sp].[moe](C)[sp].[moe](A)}$$$$V2.0
- target mRNA inhibition (HepG2, 0.07 µM): 33% and 18%
